Assay results published in patent EP4818168A1, “FUSED RING COMPOUND, PHARMACEUTICAL COMPOSITION THEREOF AND USE THEREOF” (priority 2023, dated 2025).

What follows are compounds tested against T1, AURKA (Homo sapiens, UniProt O14965) (assay: not given). Details: not given.
T1 construct: endogenous in cells; host or cells: Jurkat cells
T1 sequence (O14965 1-403): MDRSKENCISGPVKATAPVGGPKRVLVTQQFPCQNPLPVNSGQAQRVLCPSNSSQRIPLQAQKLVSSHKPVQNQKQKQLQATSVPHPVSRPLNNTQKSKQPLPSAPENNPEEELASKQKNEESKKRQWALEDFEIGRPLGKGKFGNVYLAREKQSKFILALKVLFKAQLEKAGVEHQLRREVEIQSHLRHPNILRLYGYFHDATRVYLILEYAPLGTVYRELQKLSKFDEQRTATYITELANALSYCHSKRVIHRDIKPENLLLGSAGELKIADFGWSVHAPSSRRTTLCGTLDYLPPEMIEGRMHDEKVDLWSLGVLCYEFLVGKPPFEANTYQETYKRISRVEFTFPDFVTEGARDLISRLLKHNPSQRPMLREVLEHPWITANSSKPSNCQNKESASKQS
Assay type: cell-based
Summary of the method: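 Jurkat cells seeded at 1×10^6 cells/500 µL and treated with compound; lysates run on SDS-PAGE, blotted to nitrocellulose and probed overnight at 4°C for AURKA. Chemiluminescent or fluorescent band intensity fitted to a curve to give DC50 for protein degradation.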

| Structure (SMILES) | Percentage of AURKA Degradation Induced by 100 nM Compound in Jurkat Cells | Percentage of AURKA Degradation Induced by 1 µM Compound in Jurkat Cells |
| --- | --- | --- |
| CC1(C)CN(C23CC(Nc4ncc5c(n4)-c4ccc(Cl)cc4C(c4c(F)cccc4F)=NC5)(C2)C3)C(=O)CN1CC1CCN(c2ccc(N3CCC(=O)NC3=O)cn2)CC1 [Compound A316] | ++ (key: +: Degradation ≤ 30%; ++: 30% < Degradation ≤ 70%; +++: Degradation > 70%) | ++ (key: +: Degradation ≤ 30%; ++: 30% < Degradation ≤ 70%; +++: Degradation > 70%) |
| O=C1CCN(c2cccc(N3CCC(N4CC5(CN(c6cccc(Nc7ncc8c(n7)-c7ccc(Cl)cc7C(c7c(F)cccc7F)=NC8)c6)C5)C4)CC3)c2)C(=O)N1 [Compound A223] | +++ (key: +: Degradation ≤ 30%; ++: 30% < Degradation ≤ 70%; +++: Degradation > 70%) | +++ (key: +: Degradation ≤ 30%; ++: 30% < Degradation ≤ 70%; +++: Degradation > 70%) |

Same assay, conditions: 100 nM compound, Jurkat cells, 24 h, Table 2

| Structure (SMILES) | Percentage of AURKA Degradation Induced by 100 nM Compound in Jurkat Cells |
| --- | --- |
| O=C1CCN(c2ccc(N3CCC(CN4CC(=O)N(C56CC(Nc7ncc8c(n7)-c7ccc(Cl)cc7C(c7c(F)cccc7F)=NC8)(C5)C6)C(=O)C4)CC3)nc2)C(=O)N1 [Compound A283] | +++ (Degradation > 70%) |
| O=C1CCN(c2ccc(N3CC4COCC(C3)N4CC3CN(c4ccc(Nc5ncc6c(n5)-c5ccc(Cl)cc5C(c5c(F)cccc5F)=NC6)cc4)C3)nc2)C(=O)N1 [Compound A358] | +++ (Degradation > 70%) |
| O=C1CCN(c2ccc(N3CC(C(=O)N4CCN(c5ccc(Nc6ncc7c(n6)-c6ccc(Cl)cc6C(c6nccs6)=NC7)cc5)CC4)C3)nc2)C(=O)N1 [Compound A292] | +++ (Degradation > 70%) |
| Cc1c(N2CCC(CN3Cc4ccc(Nc5ncc6c(n5)-c5ccc(Cl)cc5C(c5c(F)cccc5F)=NC6)cc4C3)CC2)cccc1N1CCC(=O)NC1=O [Compound A181] | +++ (Degradation > 70%) |
| O=C1CCN(c2ccc(N3CCN(C4(C5CN(c6ccc(Nc7ncc8c(n7)-c7ccc(Cl)cc7C(c7c(F)cccc7F)=NC8)cc6)C5)CC4)CC3)nc2)C(=O)N1 [Compound A252] | +++ (Degradation > 70%) |
| O=C1CCN(c2ccc(N3CCN(CC#Cc4ccc(Nc5ncc6c(n5)-c5ccc(Cl)cc5C(c5c(F)cccc5F)=NC6)cc4)CC3)cc2)C(=O)N1 [Compound A124] | + (Degradation ≤ 30%) |
| O=C1CCN(c2ccc(N3CCC(N4CCN(c5ccc(Nc6ncc7c(n6)-c6ccc(Cl)cc6C(c6c(F)cccc6F)=NC7)cc5)C5(CC5)C4)CC3)nc2)C(=O)N1 [Compound A217] | + (Degradation ≤ 30%) |
| O=C1CCN(c2ccnc(N3CCN(CC#Cc4cccc(Nc5ncc6c(n5)-c5ccc(Cl)cc5C(c5c(F)cccc5F)=NC6)c4)CC3)c2)C(=O)N1 [Compound A130] | ++ (30% < Degradation ≤ 70%) |
| O=C1CCN(c2cnc(N3CCN(CCN4Cc5cc(Nc6ncc7c(n6)-c6ccc(Cl)cc6C(c6c(F)cccc6F)=NC7)ccc5C4=O)CC3)s2)C(=O)N1 [Compound A157] | ++ (30% < Degradation ≤ 70%) |
| Cn1nc(N2CCC(=O)NC2=O)c2cc(F)c(N3CCN(CC4CN(c5cccc(Nc6ncc7c(n6)-c6ccc(Cl)cc6C(c6c(F)cccc6F)=NC7)c5)C4)CC3)cc21 [Compound A245] | +++ (Degradation > 70%) |

Same assay, conditions: 1 µM compound, Jurkat cells, 24 h, Table 2

| Structure (SMILES) | Percentage of AURKA Degradation Induced by 1 µM Compound in Jurkat Cells |
| --- | --- |
| O=C1CCN(c2ccc(N3CCC(CN4CC(=O)N(C56CC(Nc7ncc8c(n7)-c7ccc(Cl)cc7C(c7c(F)cccc7F)=NC8)(C5)C6)C(=O)C4)CC3)nc2)C(=O)N1 [Compound A283] | +++ (Degradation > 70%) |
| O=C1CCN(c2ccc(N3CC4COCC(C3)N4CC3CN(c4ccc(Nc5ncc6c(n5)-c5ccc(Cl)cc5C(c5c(F)cccc5F)=NC6)cc4)C3)nc2)C(=O)N1 [Compound A358] | +++ (Degradation > 70%) |
| O=C1CCN(c2ccc(N3CC(C(=O)N4CCN(c5ccc(Nc6ncc7c(n6)-c6ccc(Cl)cc6C(c6nccs6)=NC7)cc5)CC4)C3)nc2)C(=O)N1 [Compound A292] | +++ (Degradation > 70%) |
| Cc1c(N2CCC(CN3Cc4ccc(Nc5ncc6c(n5)-c5ccc(Cl)cc5C(c5c(F)cccc5F)=NC6)cc4C3)CC2)cccc1N1CCC(=O)NC1=O [Compound A181] | +++ (Degradation > 70%) |
| O=C1CCN(c2ccc(N3CCN(C4(C5CN(c6ccc(Nc7ncc8c(n7)-c7ccc(Cl)cc7C(c7c(F)cccc7F)=NC8)cc6)C5)CC4)CC3)nc2)C(=O)N1 [Compound A252] | +++ (Degradation > 70%) |
| O=C1CCN(c2ccc(N3CCN(CC#Cc4ccc(Nc5ncc6c(n5)-c5ccc(Cl)cc5C(c5c(F)cccc5F)=NC6)cc4)CC3)cc2)C(=O)N1 [Compound A124] | + (Degradation ≤ 30%) |
| O=C1CCN(c2ccc(N3CCC(N4CCN(c5ccc(Nc6ncc7c(n6)-c6ccc(Cl)cc6C(c6c(F)cccc6F)=NC7)cc5)C5(CC5)C4)CC3)nc2)C(=O)N1 [Compound A217] | + (Degradation ≤ 30%) |
| O=C1CCN(c2ccnc(N3CCN(CC#Cc4cccc(Nc5ncc6c(n5)-c5ccc(Cl)cc5C(c5c(F)cccc5F)=NC6)c4)CC3)c2)C(=O)N1 [Compound A130] | ++ (30% < Degradation ≤ 70%) |
| O=C1CCN(c2cnc(N3CCN(CCN4Cc5cc(Nc6ncc7c(n6)-c6ccc(Cl)cc6C(c6c(F)cccc6F)=NC7)ccc5C4=O)CC3)s2)C(=O)N1 [Compound A157] | + (Degradation ≤ 30%) |
| Cn1nc(N2CCC(=O)NC2=O)c2cc(F)c(N3CCN(CC4CN(c5cccc(Nc6ncc7c(n6)-c6ccc(Cl)cc6C(c6c(F)cccc6F)=NC7)c5)C4)CC3)cc21 [Compound A245] | +++ (Degradation > 70%) |

The compounds below were run on H82 cells (assay: cells). Details: Homo sapiens, NCI-H82, read-out: IC50 in H82 Cells.
Assay type: cell-based
Summary of the method: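 H82 cells in RPMI1640 + 10% FBS exposed to compound (0.1% DMSO final) for 6 days at 37 °C, 5% CO2. Viability read by CellTiter-Glo ATP luminescence, normalised to DMSO and medium controls; IC50 from nonlinear regression of the dose–survival curve.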

| Structure (SMILES) | IC50 [nM] |
| --- | --- |
| CC1(C)CN(C23CC(Nc4ncc5c(n4)-c4ccc(Cl)cc4C(c4c(F)cccc4F)=NC5)(C2)C3)C(=O)CN1CC1CCN(c2ccc(N3CCC(=O)NC3=O)cn2)CC1 [Compound A316] | < 1000 |
| O=C1CCN(c2cccc(N3CCC(N4CC5(CN(c6cccc(Nc7ncc8c(n7)-c7ccc(Cl)cc7C(c7c(F)cccc7F)=NC8)c6)C5)C4)CC3)c2)C(=O)N1 [Compound A223] | < 1000 |

Same assay, conditions: Homo sapiens, NCI-H82; H82 cells, 4000 cells/well, CellTiter-Glo; read-out: IC50 in H82 Cells

| Structure (SMILES) | IC50 [nM] |
| --- | --- |
| O=C1CCN(c2ccc(N3CCC(CN4CC(=O)N(C56CC(Nc7ncc8c(n7)-c7ccc(Cl)cc7C(c7c(F)cccc7F)=NC8)(C5)C6)C(=O)C4)CC3)nc2)C(=O)N1 [Compound A283] | < 1000 |
| O=C1CCN(c2ccc(N3CC4COCC(C3)N4CC3CN(c4ccc(Nc5ncc6c(n5)-c5ccc(Cl)cc5C(c5c(F)cccc5F)=NC6)cc4)C3)nc2)C(=O)N1 [Compound A358] | < 1000 |
| O=C1CCN(c2ccc(N3CC(C(=O)N4CCN(c5ccc(Nc6ncc7c(n6)-c6ccc(Cl)cc6C(c6nccs6)=NC7)cc5)CC4)C3)nc2)C(=O)N1 [Compound A292] | < 1000 |
| Cc1c(N2CCC(CN3Cc4ccc(Nc5ncc6c(n5)-c5ccc(Cl)cc5C(c5c(F)cccc5F)=NC6)cc4C3)CC2)cccc1N1CCC(=O)NC1=O [Compound A181] | < 1000 |
| O=C1CCN(c2ccc(N3CCN(C4(C5CN(c6ccc(Nc7ncc8c(n7)-c7ccc(Cl)cc7C(c7c(F)cccc7F)=NC8)cc6)C5)CC4)CC3)nc2)C(=O)N1 [Compound A252] | < 1000 |
| O=C1CCN(c2ccc(N3CCN(CC#Cc4ccc(Nc5ncc6c(n5)-c5ccc(Cl)cc5C(c5c(F)cccc5F)=NC6)cc4)CC3)cc2)C(=O)N1 [Compound A124] | < 1000 |
| O=C1CCN(c2ccc(N3CCC(N4CCN(c5ccc(Nc6ncc7c(n6)-c6ccc(Cl)cc6C(c6c(F)cccc6F)=NC7)cc5)C5(CC5)C4)CC3)nc2)C(=O)N1 [Compound A217] | < 1000 |
| O=C1CCN(c2ccnc(N3CCN(CC#Cc4cccc(Nc5ncc6c(n5)-c5ccc(Cl)cc5C(c5c(F)cccc5F)=NC6)c4)CC3)c2)C(=O)N1 [Compound A130] | < 1000 |
| O=C1CCN(c2cnc(N3CCN(CCN4Cc5cc(Nc6ncc7c(n6)-c6ccc(Cl)cc6C(c6c(F)cccc6F)=NC7)ccc5C4=O)CC3)s2)C(=O)N1 [Compound A157] | < 1000 |
| Cn1nc(N2CCC(=O)NC2=O)c2cc(F)c(N3CCN(CC4CN(c5cccc(Nc6ncc7c(n6)-c6ccc(Cl)cc6C(c6c(F)cccc6F)=NC7)c5)C4)CC3)cc21 [Compound A245] | < 1000 |
